Test results reported in patent US20250051315A1, “COMPOUND, ANGIOTENSIN II TYPE 1 RECEPTOR ANTAGONIST AND PHARMACEUTICAL COMPOSITION” (Alchemedicine, Inc., priority 2021, published 2025).

Key:
[1] = tested on: Angiotensin II-Induced Hypertensive Activity; experiment: Suppressive effect on angiotensin II-induced hypertensive activity; assay type: in vivo; conditions: anesthetized male Wistar rats; 1 mg/kg intravenously over 10 minutes, then ATII 300 ng/kg i.v.; 20 seconds after ATII; n=3
Method: Male Wistar rats aged 8 to 12 weeks underwent catheterization of the trachea for airway management, catheterization of the carotid artery for blood pressure measurement, and catheterization of the femoral vein for angiotensin II (ATII) administration, under analgesic treatment and urethane anesthesia. After confirming that blood pressure and heart rate had stabilized, 1 mg/kg (15 mL/kg) of solvent (PBS) or test substance (the compound of Example 1) adjusted with the solvent was administered intravenously over 10 minutes. Then, ATII (300 ng/kg) was administered intravenously and blood pressure was monitored until 10 minutes after administration. The test was performed with n=3 in each group. For analysis, using 2 minutes before ATII administration as a pre-value, the systolic and diastolic blood pressures at the pre-value and 20 seconds immediately after ATII administration, when the blood pressure is maximum, were determined and the differences (delta values) from the pre-values were calculated. Student's t-test was used to compare the delta values between the solvent administration group and test substance administration group.

[2] = target: T1, human angiotensin II type 1 receptor (Homo sapiens, UniProt P30556); experiment: Angiotensin II type 1 receptor inhibitory effect (aequorin luminescence, angiotensin II at EC80); assay type: cell-based; conditions: CHO-K1-mt aequorin-Gα16 cells expressing human AT1 receptor
T1 construct: expressed in transfected cells; host or cells: CHO-K1-mt aequorin-Gα16 cells
T1 sequence (P30556 1-359): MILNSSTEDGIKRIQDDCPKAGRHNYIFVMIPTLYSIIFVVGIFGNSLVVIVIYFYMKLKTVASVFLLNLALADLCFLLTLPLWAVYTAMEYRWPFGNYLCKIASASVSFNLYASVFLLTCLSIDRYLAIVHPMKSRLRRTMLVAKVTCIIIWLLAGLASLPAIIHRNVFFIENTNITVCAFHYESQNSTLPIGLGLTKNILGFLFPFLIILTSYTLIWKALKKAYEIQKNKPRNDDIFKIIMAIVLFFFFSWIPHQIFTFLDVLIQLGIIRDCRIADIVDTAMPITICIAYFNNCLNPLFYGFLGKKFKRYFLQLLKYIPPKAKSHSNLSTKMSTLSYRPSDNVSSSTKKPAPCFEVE
Method: The inhibitory effect on angiotensin II type 1 receptor was studied by the following method.
CHO-K1-mt aequorin-Gα16 cells forced to express human angiotensin II type 1 receptor (Accession Number: NP 000676.1) were cultured in an antibiotic-free medium for 18 hours and then treated with PBS-EDTA (5 mM EDTA). After centrifugation (2 minutes, 405×g, room temperature), the cells were suspended in assay buffer (DMEM/HAM's F12 with HEPES+0.1% BSA protease free).
1×10^6 cells/mL of the cells were incubated at room temperature for 4 hours or more in the presence of Coelenterazin h (Molecular Probes) at a final concentration of 5 µM to confirm the agonist response by angiotensin II, and determine the concentration of angiotensin II corresponding to EC 80.
(§1) Then, 50 μL of the cell suspension treated with Coelenterazin h at 10,000 cells/well and 50 μL of assay buffer containing the test substance (final concentration: 0.5% DMSO) were added to a 96-well plate. After 15 minutes, 100 μL of angiotensin II solution was added so that the final concentration reached the EC80 concentration, and the receptor activity was measured by the amount of luminescence using FDSS6000 (Hamamatsu Photonics). IC50 values were calculated using XLfit (IDBS).

[3] = target: T2, human endothelin A receptor (Homo sapiens, UniProt P25101); experiment: Endothelin A receptor inhibitory effect (aequorin luminescence, endothelin at EC80); assay type: cell-based; conditions: CHO-K1-mt aequorin cells expressing human endothelin A receptor, read-out: ETA Receptor Inhibitory Effect
T2 construct: expressed in transfected cells; host or cells: CHO-K1-mt aequorin cells
T2 sequence (P25101 21-427): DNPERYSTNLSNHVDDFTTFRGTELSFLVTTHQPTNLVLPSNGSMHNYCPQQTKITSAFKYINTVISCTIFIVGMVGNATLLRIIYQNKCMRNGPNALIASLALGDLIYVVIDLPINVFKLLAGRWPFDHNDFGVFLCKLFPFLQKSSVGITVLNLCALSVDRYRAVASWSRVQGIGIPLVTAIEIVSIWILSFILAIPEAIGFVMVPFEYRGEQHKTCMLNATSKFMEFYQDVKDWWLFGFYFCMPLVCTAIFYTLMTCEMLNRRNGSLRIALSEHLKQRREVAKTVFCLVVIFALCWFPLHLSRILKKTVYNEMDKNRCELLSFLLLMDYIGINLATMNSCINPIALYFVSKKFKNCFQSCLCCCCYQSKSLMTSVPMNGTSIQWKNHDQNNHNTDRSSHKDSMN
Method: The inhibitory effect on endothelin A receptor was studied by the following method.
CHO-K1-mt aequorin cells forced to express human endothelin A receptor (Accession Number: NP_001948.1) were cultured in an antibiotic-free medium for 18 hours and then treated with PBS-EDTA (5 mM EDTA). After centrifugation (2 minutes, 405×g, room temperature), the cells were suspended in assay buffer (DMEM/HAM'S F12 with HEPES+0.1% BSA protease free). 1×10^6 cells/mL of the cells were incubated at room temperature for 4 hours in the presence of Coelenterazin h (Molecular Probes) at a final concentration of 5 μM to confirm the agonist response by endothelin, and determine the concentration of endothelin corresponding to EC 80.
as §1, with “endothelin” for “100 μL of angiotensin II solution”

IC50 [2]	IC50 [3]	Compound	Diastolic Blood Pressure, difference (delta value) from pre-value [1]	Systolic Blood Pressure, difference (delta value) from pre-value [1]
≤ 1 nM	> 100 nM	CCCCC1=NC2(CCCC2)C(=O)N1Cc1ccc(-c2ccccc2S(=O)(=O)Nc2noc(C)c2C)c2c1COC2 [Example 1, 2-(7-((2-Butyl-4-oxo-1,3-diazaspiro[4,4]nona-1-en-3-yl)methyl)-1,3-dihydroisobenzofuran-4-yl)-N-(4,5-dimethylisoxazol-3-yl)benzenesulfonamide]	9 ± 5	8 ± 3
1 to 100 nM	1 to 100 nM	CCCCC1=NC2(CCCC2)C(=O)N1Cc1ccc(-c2ccccc2S(=O)(=O)Nc2ncc(C)nc2OC)c2c1COC2 [Example 2, 2-(7-((2-Butyl-4-oxo-1,3-diazaspiro[4,4]nona-1-en-3-yl)methyl)-1,3-dihydroisobenzofuran-4-yl)-N-(3-methoxy-5-methylpyrazin-2-yl)benzenesulfonamide]		
1 to 100 nM	1 to 100 nM	CCCCC1=NC2(CCCC2)C(=O)N1Cc1ccc(-c2ccccc2S(=O)(=O)Nc2noc(C)c2Cl)c2c1COC2 [Example 3, 2-(7-((2-Butyl-4-oxo-1,3-diazaspiro[4,4]nona-1-en-3-yl)methyl)-1,3-dihydroisobenzofuran-4-yl)-N-(4-chloro-5-methylisoxazol-3-yl)benzenesulfonamide]		
